The source of these data is PubChem BioAssay AID1159564 (GlaxoSmithKline (GSK), 2015).

The test deals with L. donovani-infected THP-1 macrophages, intracellular amastigote imaging. The experiment in a line: antileishmanial activity in infected THP-1 macrophages – imaging, THP-1 host macrophages, host toxicity (AID 1159564).
Setting [1] is: measured here: THP-1 host cell toxicity.
[2] abbreviates: measured here: amastigotes per macrophage.

Calls of active or inactive are those of the source. The rule behind the calls is not given here. Some results are limits rather than exact numbers.

Turning to `Cc1ccc(S(=O)(=O)Cn2nnnc2C(c2cccnc2)N2CCN(c3ccccc3)CC2)cc1` (stereo unspecified), the IC50 (as a rule, the point on the concentration scale where inhibition reaches its midpoint) is > 50 µM (inactive). This molecule showed an IC50 under setting [1] above 50 µM. Under setting [2], this molecule registered a half-maximal inhibitory concentration (IC50) above 50 µM.

On to `CC(C)(C)Nc1nc(-c2ccccn2)nc2ccccc12`, for which the 50% inhibitory concentration (IC50) was 1.6 µM. In addition, the IC50 under setting [1] turned out to be 16 µM. Under setting [2], this molecule registered an IC50 of 1.3 µM.

`c1ccc(-c2nc(NC3CCCCC3)cc(C3CC3)n2)nc1`: the IC50 is 4 µM. The half-inhibitory concentration (IC50) under setting [1] came to 20 µM. The IC50 under setting [2] worked out at 3.2 µM.

With `Cc1cc(NC(=O)c2ccc([N+](=O)[O-])s2)ccc1Br`, the IC50 was 2.5 µM. Besides, under setting [1], the IC50 was found to be 16 µM. Besides, the IC50 under setting [2] came to 1.6 µM.

For `O=C1NCCn2ccc(Nc3nc(NC4CCC(O)CC4)ncc3Cl)c21` (stereo unspecified), the IC50 is 1 µM. Under setting [1], this molecule registered a half-maximal inhibitory concentration (IC50) of 0.4 µM. Under setting [2], this molecule came in with an IC50 of 0.63 µM.

With `O=C1NCc2cccc(Nc3nc(NC4CCC(O)CC4)ncc3Br)c21` (stereo unspecified), the IC50 was 0.16 µM. Besides, the IC50 under setting [1] came out at 0.1 µM. Also, the IC50 under setting [2] came out at 0.13 µM.

Take `O=C(N1CCc2ccccc2CC1)C1(C(=O)N2CCC(n3c(=O)[nH]c4ncccc43)CC2)CC1`: the IC50 is > 50 µM (inactive). In addition, the IC50 under setting [1] was above 50 µM. The half-maximal inhibitory concentration (IC50) under setting [2] was above 50 µM.

For the molecule `Cc1[nH]nc(Nc2ccnc3[nH]ccc23)c1C`, the IC50 is > 50 µM (inactive). The molecule further displayed an IC50 under setting [1] above 50 µM. Further, the IC50 under setting [2] is above 50 µM.

Take `CC(CCc1ccccc1)NC(=O)CN(Cc1ccccn1)Cc1ccccn1` (stereo unspecified): the half-maximal inhibitory concentration (IC50) is 3.2 µM. Further, the concentration for half-maximal inhibition (IC50) under setting [1] was determined as 20 µM. Under setting [2], the IC50 worked out at 3.2 µM.

As for `CCCn1c(NC(=O)Cc2ccc(Cl)cc2)nc2ccccc21`, the IC50 is 5 µM. The same molecule gave an IC50 under setting [1] above 50 µM. Also, the IC50 under setting [2] worked out at 3.2 µM.

Consider `O=C(Nc1cccc(Cl)c1)Nc1ccc([N+](=O)[O-])cc1Cl`, for which the IC50 was 3.2 µM. Also, under setting [1], the 50% inhibitory concentration (IC50) was found to be 25 µM. Also, the half-maximal inhibitory concentration (IC50) under setting [2] is 2 µM.

With `Cc1c(CNC(=O)c2ccc(Cn3cc(Cl)c([N+](=O)[O-])n3)cc2)cnn1C`, the IC50 was > 50 µM (inactive). Under setting [1], this molecule returned an IC50 above 50 µM. The IC50 under setting [2] is above 50 µM.

Turning to `N#Cc1cccc(CNc2ccc(-c3cnn(CC4CC4)c(=O)c3C#N)cc2)c1`, the IC50 is 1.3 µM. Under setting [1], this molecule gave an IC50 of 6.3 µM. Besides, the half-maximal inhibitory concentration (IC50) under setting [2] was 0.25 µM.

Take `COc1ccc(C(C)(C)C)cc1S(=O)(=O)n1ccnc1`: the IC50 was > 50 µM (inactive). Under setting [1], this molecule returned an IC50 above 50 µM. The IC50 under setting [2] amounted to 25 µM.

In the case of `COc1ccc(C(=O)NC2CCN(CCn3c(=O)ccc4ncc(F)cc43)CC2)cc1Cl`, the IC50 was > 50 µM (inactive). The molecule further came in with an IC50 under setting [1] above 50 µM. Besides, the IC50 under setting [2] was 16 µM.

As to `O=C(Cc1ccccc1)Nc1[nH]nc2sc(C(=O)NC3CCCC3)cc12`, the IC50 is 3.2 µM. Further, the IC50 under setting [1] was 1.6 µM. Moreover, under setting [2], the IC50 turned out to be 1.6 µM.

As to `COc1ccc(NC(=O)c2ccc(NC(=O)CN(c3ccccc3C)S(C)(=O)=O)cc2)cc1`, the IC50 is > 50 µM (inactive). This molecule also registered an IC50 under setting [1] above 50 µM. For the same molecule, the IC50 under setting [2] stood at 7.9 µM.

Consider `CC(C)C[C@H](NC(=O)c1csc(-c2cccs2)n1)C(=O)NC1(C#N)CC1`, for which the IC50 is > 50 µM (inactive). Besides, the IC50 under setting [1] is above 50 µM. In addition, the IC50 under setting [2] is above 50 µM.

Regarding `Cc1cnc(Nc2cc(Cc3ccccc3)nc(NC3CCC(O)CC3)n2)s1` (stereo unspecified), the IC50 was 0.04 µM. The 50% inhibitory concentration (IC50) under setting [1] worked out at 0.025 µM. The same molecule came in with an IC50 under setting [2] of 0.032 µM.

With `COc1cnc2ccc(=O)n(CCN3CCC(NC/C=C/c4cc(F)ccc4F)CC3)c2c1`, the IC50 was 5 µM. Under setting [1], this molecule had an IC50 of 40 µM. The same molecule had an IC50 under setting [2] of 2 µM.

For `Cc1cccc(NS(=O)(=O)c2cnc3sc(C)cn3c2=O)c1`, the IC50 is > 50 µM (inactive). The IC50 under setting [1] is above 50 µM. Besides, under setting [2], the IC50 was determined as 5 µM.

Regarding `N#Cc1ccccc1S(=O)(=O)N1CCN(C(=O)CNC(=O)c2ccc3c(c2)OCO3)CC1`, the IC50 was 5 µM. The molecule further showed an IC50 under setting [1] above 50 µM. Under setting [2], this molecule returned an IC50 of 1.6 µM.

With `COc1cc(Nc2nccc(Nc3onc(C)c3C)n2)cc(S(=O)(=O)C2CCOCC2)c1`, the IC50 was > 50 µM (inactive). Besides, under setting [1], the IC50 was found to be 40 µM. Under setting [2], this molecule came in with an IC50 of 5 µM.

For the molecule `CCS(=O)(=O)c1cccc(C(=O)Nc2nc(-c3ccccn3)cs2)c1`, the IC50 is 4 µM. Under setting [1], this molecule came in with an IC50 of 20 µM. This molecule also displayed an IC50 under setting [2] of 3.2 µM.

As to `O=C(NCCc1csc(-c2ccc(F)cc2)n1)c1cccs1`, the IC50 was > 50 µM (inactive). This molecule yielded an IC50 under setting [1] above 50 µM. This molecule also came in with an IC50 under setting [2] of 20 µM.

As for `COc1ccc2c(Cl)c(C(=O)N3CCC3)sc2c1Cl`, the IC50 is > 50 µM (inactive). Under setting [1], this molecule returned an IC50 above 50 µM. The IC50 under setting [2] is above 50 µM.

For the molecule `Cc1nc(C(=O)Nc2ccc3c(c2)OCO3)nn1-c1ccc(F)cc1`, the IC50 was 7.9 µM. The IC50 under setting [1] was above 50 µM. For the same molecule, the IC50 under setting [2] amounted to 2.5 µM.
